“Also recorded” adds a separate entry of the source.
Tests used:
[1] = system: L. infantum MHOM/TN/80/IPT1 promastigotes; experiment: L. infantum promastigotes viability assay; type: cell-based; details: 72 h; for IC50: scalar dilutions from 20 to 0.31 μM, mean and 95% CI; for inhibition at 20 µM: single dose 20 μM, 26°C
Description: The reference strain L. infantum MHOM/TN/80/IPT1 (WHO international reference strain) was purchased from ATCC (ATCC® 50134™) and cultured in Evans’s Modified Tobie Medium (EMTM) at 26–28°C. During the treatment with bisindole derivative compounds, the parasites were maintained in RPMI-PY medium as described previously
The activity of bisindole derivatives was first evaluated on late log/stationary phase L. infantum promastigotes resuspended in 96-well plates (100 μL/well) in complete RPMI-PY medium with a density of 2.5×10^6 parasites/mL. The anti-parasitic activity was initially investigated with the single dose of 20 μM of each compound for 72 h at 26°C. […] As positive control, the anti-leishmanial drug miltefosine (Sigma-Aldrich, Milan, Italy) was included. Each condition was carried out in duplicate. The promastigotes viability was evaluated using the CellTiter 96H aqueous non-radioactive cell proliferation assay (Promega, Madison, Wisconsin, USA), as previously reported. The efficacy of selected compounds was evaluated by determining the IC50 values using the non-linear regression curves in GraphPad Prism 8.0 (GraphPad Software, Inc., San Diego, CA, USA). The equation used for data fitting was Y = 100/(1+10^((LogIC50-X)*HillSlope)) (hillslope not constrained), where X is equal to the log of concentration and Y is the normalized response.

[2] = Cytotoxicity assay on PMA-differentiated THP-1 macrophage-like cells; type: cell-based, human; details: human, PMA-differentiated THP-1 macrophage-like cells; 72 h, scalar dilutions from 100 to 3.12 μM; mean and 95% CI
Description: (§1) The human monocytic cell line THP-1 (ECACC 88081201) was cultured in RPMI-1640 medium supplemented with 10% heat-inactivated fetal bovine serum (FBS), 2 mM L-glutamine, 10 g/L non-essential amino acid, 1 mM sodium pyruvate, 100 μg/mL streptomycin, […]. Cells were maintained in a humidified incubator at 37°C and 5% CO2. All cell culture reagents were purchased from Sigma-Aldrich (St. Louis, MO, USA).
(§2) The cytotoxicity of bisindole derivative compounds was evaluated on THP-1 cells. Briefly, cells were resuspended at a density of 5×10^6 cells/mL, 100 μL/well were seeded in a 96-well plate and treated for 48 h with 20 ng/mL phorbol myristic acid (PMA) to induce differentiation into macrophages-like cells. After cell adhesion, selected compounds were used at 4, 20, and 100 μM, for 72 h at 37°C. […] Compounds with cytotoxicity higher than 20 μM were further tested to determine CC50 with scalar dilutions 1:2 or 2:3 (from 100 to 3.12 μM).
(§3) The negative control (not-treated cells) and the anti-leishmanial drug miltefosine were included in each experiment. Each condition was carried out in duplicate. To evaluate the cytotoxicity of the selected compounds, the CellTiter 96H Aqueous Non-Radioactive Cell Proliferation Assay (Promega) was performed as described above. For each compound, the SI was calculated as the ratio between cytotoxicity in THP-1 and activity against L. infantum promastigotes.

THP-1 cells = experiment: as above; type: cell-based, human; details: CC50 in THP-1 / IC50 against L. infantum promastigotes
Description: as §1, §2, §3

infected THP-1 cells = experiment: Cytotoxic effect on infected THP-1 cells (cell count, Hoechst staining); type: cell-based, human; details: 72 h, 1.25-20 μM
Description: THP-1 cells were plated in a 96-well plate and differentiated as described above. After differentiation, cells were infected with a parasite-to-cell ratio of 10:1 for 24 h with L. infantum MHOM/TN/80/IPT1 promastigotes previously stained with carboxyfluorescein succinimidyl ester (CFSE) dye (Invitrogen, Waltham, Massachusetts, USA) following manufacturer’s instructions. Briefly, Leishmania cells were washed twice with PBS to remove any trace of serum and resuspended 1×10^7/mL PBS. CFSE was then added at 5 μM final concentration, and promastigotes were incubated for 15 min at 37°C in the dark. The labeling was stopped by adding 4 volumes of cold complete media containing 10% serum and incubating in ice for 5 min. Labeled parasites were washed three times with complete RPMI medium and used for the infection. […] To analyze the infection, cells were washed, formaldehyde/methanol fixed, stained with Hoechst dye, and observed with a fluorescence microscope. Images were acquired (at 5× magnification) at 494 nm excitation/521 nm emission (green) and 350 nm excitation/460 emission (blue) for CFSE and Hoechst staining, respectively. Automated cell counting of single-color images was performed with ImageJ software to monitor the infection: the promastigotes count on each green image was normalized with the cell count on the corresponding blue image. The normalized value of infected non-treated cells was taken as 100%. To calculate IC50, the percentage values of Leishmania cell count normalized to THP-1 cells were plotted against the log10 concentration (μM) of each compound.
(B) The effect of treatment was monitored by counting the number of cells. Data are represented as mean ± SD. Two-way ANOVA; Dunnett’s multiple comparisons test; *adjusted p < 0.05, **adjusted p < 0.01.

[3] = system: L. infantum intracellular amastigotes; experiment: Anti-amastigote assay on infected THP-1 cells; type: cell-based; details: Leishmania infantum; THP-1 cells infected 24 h, 72 h treatment, 20 to 0.31 μM; read-out: IC50 against L. infantum intracellular amastigotes
Description: THP-1 cells were plated in a 96-well plate and differentiated as described above. […] Briefly, Leishmania cells were washed twice with PBS to remove any trace of serum and resuspended 1×10^7/mL PBS. […] Labeled parasites were washed three times with complete RPMI medium and used for the infection. […] To analyze the infection, cells were washed, formaldehyde/methanol fixed, stained with Hoechst dye, and observed with a fluorescence microscope. Images were acquired (at 5× magnification) at 494 nm excitation/521 nm emission (green) and 350 nm excitation/460 emission (blue) for CFSE and Hoechst staining, respectively. Automated cell counting of single-color images was performed with ImageJ software to monitor the infection: the promastigotes count on each green image was normalized with the cell count on the corresponding blue image. […] To calculate IC50, the percentage values of Leishmania cell count normalized to THP-1 cells were plotted against the log10 concentration (μM) of each compound.

[4] = Well-being, body weight and organ weight of infected and treated BALB/c mice; type: in vivo; details: miltefosine 10 mg/kg/day per os
Description: (§4) The compound URB1483 was selected for the in vivo evaluation on a BALB/c mice infection model. Six- to seven-week-old BALB/c mice were purchased from Charles River Laboratories (Barcelona, Spain) or the I3S (Porto, Portugal) animal facility. Luciferase-expressing L. infantum (MHOM/MA/67/ITMAP-263) axenic amastigotes were cultured in complete cell-free medium MAA/20 [20] at 37°C with 5% CO2. Five-day-old cultures of amastigotes were washed twice with PBS and resuspended at a concentration of 1×10^9 parasites/Ml. A total of 17 mice were infected with 100 μL of parasite suspension containing 1×10^8 parasites. The injection was performed intra-venously (IV) in the tails of mice, and treatments started 21 days post-infection for 10 consecutive days. Formulation studies are reported in the Supporting Information (S1 Table in S1 File). […]
(§5) Mice well-being-assessment was checked every two days, in terms of weight control and the presence of stress signs. […] Spleen and liver were weighted, and bone marrow cells were counted with automatic cell counter EVE^TM (NanoEnTek, Seul, Korea). […] For bone marrow, the number of parasites was calculated per 10^5 cells using the formula: [(geometric mean of reciprocal titer from each triplicate/number of cells) × reciprocal fraction of the cells inoculated into the first well]. […]

[5] = system: L. infantum (MHOM/MA/67/ITMAP-263) axenic amastigotes; experiment: In vivo anti-amastigote activity in BALB/c mice infection model (limiting dilution parasite burden); details: all the organs (spleen, liver, bone marrow); miltefosine 10 mg/kg/day per os, 10 days
Description: as §4, §5

Row | SMILES | IC50 ([1]; Leishmania infantum) [µM] | inhibition at 20 µM ([1]; Leishmania infantum) [%] | CC50 at 72 h [2] [µM] | SI (CC50/IC50) (THP-1 cells) | also measured
1 | NCC(c1c[nH]c2ccccc12)c1c[nH]c2ccccc12 [1a] | > 10 | 82.3 | – | – | IC50 [1]: 12.9 µM
2 | NCC(c1c[nH]c2cc(F)ccc12)c1c[nH]c2cc(F)ccc12 [1b] | 8.6 | 89.1 | 40.4 | 4.7 | –
3 | NCC(c1c[nH]c2cc(Cl)ccc12)c1c[nH]c2cc(Cl)ccc12 [1c] | 7.4 | 95.6 | 39.4 | 5.3 | –
4 | NCC(c1c[nH]c2cc(Br)ccc12)c1c[nH]c2cc(Br)ccc12 [1d, 2,2-bis(6-bromo-1H-indol-3-yl)ethanamine] | – | 96.8 | – | – | –
5 | NCC(c1c[nH]c2ccc(I)cc12)c1c[nH]c2ccc(I)cc12 [1e] | – | 97.8 | – | – | –
6 | COC(=O)c1ccc2c(C(CN)c3c[nH]c4cc(C(=O)OC)ccc34)c[nH]c2c1 [1f] | 8.2 | 89.7 | 40.1 | 4.9 | –
7 | N#Cc1ccc2[nH]cc(C(CN)c3c[nH]c4ccc(C#N)cc34)c2c1 [1g] | – | -1.6 | – | – | –
8 | Cn1cc(C(CN)c2cn(C)c3ccccc23)c2ccccc21 [1h] | 4.1 | 98 | 41.6 | 10.1 | cytotoxicity in the infection model (infected THP-1 cells): better toxicity profile than the commercial drug miltefosine; also recorded: better toxicity profile compared to the commercial drug miltefosine; IC50 [3]: 11.1 µM
9 | Cn1cc(C(CN)c2cn(C)c3cc(Br)ccc23)c2ccc(Br)cc21 [1i] | – | 98 | – | – | –
10 | CC(C)CNCC(c1c[nH]c2cc(Br)ccc12)c1c[nH]c2cc(Br)ccc12 [2a] | – | 97.8 | – | – | –
11 | Fc1ccc(CNCC(c2c[nH]c3cc(Br)ccc23)c2c[nH]c3cc(Br)ccc23)cc1 [2b] | – | 98.2 | – | – | –
12 | Clc1ccc(CNCC(c2c[nH]c3cc(Br)ccc23)c2c[nH]c3cc(Br)ccc23)cc1 [2c] | 2.7 | 98.1 | 11.7 | 4.3 | cytotoxicity in the infection model (infected THP-1 cells): high cellular toxicity; IC50 [3]: 6.8 µM
13 | O=[N+]([O-])c1ccc(CNCC(c2c[nH]c3cc(Br)ccc23)c2c[nH]c3cc(Br)ccc23)cc1 [2d] | 3.9 | 95 | 13.2 | 3.4 | –
14 | Cc1ccc(CNCC(c2c[nH]c3cc(Br)ccc23)c2c[nH]c3cc(Br)ccc23)cc1 [2e] | – | 95.8 | – | – | –
15 | Brc1ccc2c(C(CNCc3ccco3)c3c[nH]c4cc(Br)ccc34)c[nH]c2c1 [2f] | – | 95.2 | – | – | –
16 | Brc1ccc2c(C(CNCc3cccs3)c3c[nH]c4cc(Br)ccc34)c[nH]c2c1 [2g] | – | 95.5 | – | – | –
17 | CC(C)C(=O)NCC(c1c[nH]c2cc(Br)ccc12)c1c[nH]c2cc(Br)ccc12 [3a] | – | 96.7 | – | – | –
18 | O=C(NCC(c1c[nH]c2cc(Br)ccc12)c1c[nH]c2cc(Br)ccc12)c1ccc(F)cc1 [3b] | 9.5 | 97.7 | 21.9 | 2.3 | –
19 | O=C(NCC(c1c[nH]c2cc(Br)ccc12)c1c[nH]c2cc(Br)ccc12)c1ccc(Cl)cc1 [3c] | – | 97.4 | – | – | –
20 | O=C(NCC(c1c[nH]c2cc(Br)ccc12)c1c[nH]c2cc(Br)ccc12)c1ccc([N+](=O)[O-])cc1 [3d] | – | 90.4 | – | – | –
21 | COc1ccc(C(=O)NCC(c2c[nH]c3cc(Br)ccc23)c2c[nH]c3cc(Br)ccc23)cc1 [3e] | > 10 | 95.2 | – | – | IC50 [1]: 12.2 µM
22 | O=C(NCC(c1c[nH]c2cc(Br)ccc12)c1c[nH]c2cc(Br)ccc12)c1ccco1 [3f] | – | 97.2 | – | – | –
23 | O=C(NCC(c1c[nH]c2cc(Br)ccc12)c1c[nH]c2cc(Br)ccc12)c1cccs1 [3g] | – | 96.9 | – | – | –
24 | Cc1ccc(S(=O)(=O)NCC(c2c[nH]c3cc(Br)ccc23)c2c[nH]c3cc(Br)ccc23)cc1 [4a] | 9.8 | 96.9 | 20.2 | 2.1 | –
25 | Cc1ccc(S(=O)(=O)NCC(c2cn(C)c3ccccc23)c2cn(C)c3ccccc23)cc1 [4b] | – | 45.7 | – | – | –
26 | O=S(=O)(NCC(c1c[nH]c2cc(Br)ccc12)c1c[nH]c2cc(Br)ccc12)c1cccs1 [4c] | – | 97.6 | – | – | –
27 | CCCCCCCCCCCCCCCCOP(=O)([O-])OCC[N+](C)(C)C [miltefosine, reference compound] | 3.6 | 96.7 | 36.7 | 10.2 | spleen weight ([4]; after 10 days of treatment, versus non-treated infected group): significantly lower to the non-treated group; weight decrease ([4]; infected BALB/c mice, from the second treatment): 10%; reduction of parasite burden [5]: more than 99.9%; IC50 [3]: 1.8 µM
